Where “and” joins values, the source holds several entries; their conditions need not be identical. Equal values may be shown once.

This assay deals with 327498-153-R-J2-PDC multicell spheroid viability. Description: Anticancer human tumor 327498-153-R-J2-PDC patient-derived uterine carcinosarcoma cell line growth inhibition [IpAb]. The following applies: for viability, T/C: stronger effect = lower value. An excerpt:
Combinatorial screen of targeted agents with ipatasertib and abemaciclib in multi-cell type tumor spheroids
A high-throughput screen of multi-cell type tumor spheroids was designed to identify active combinations of targeted small molecules and ipatasertib or abemaciclib. Complex spheroids include a stromal component modeled by human endothelial cells (HUVEC) and fibroblasts modeled by human mesenchymal stem cells (MSCs). The concentration ranges selected for each drug and investigational agent were based upon clinically achievable concentrations if the clinical Cmax of the agent was known.
Compounds. The drugs and investigational agents: ipatasertib (NSC767898), abemaciclib(NSC768073), selumetinib (NSC741078), trametinib (758246), adavosertib (NSC754352), everolimus (NSC733504), sapanisertib (NSC764658), vemurafenib (NSC761431), venetoclax (NSC766270), copanlisib (NSC809693), apelisib (NSC765974), palbociblib (NSC758247), vemurafenib (NSC761431), dabrafenib (NSC764134), ravoxertinib (NSC781343), BMS-387032 (NSC767048), sotorasib (NSC818433), talazoparib (NSC767125) and afursertib (NSC778305), were obtained from the National Cancer Institute (NCI) Developmental Therapeutics Program Chemical Repository. The FDA-approved anticancer drug set is available from the NCI Developmental Therapeutics Program. […] The stock solutions were prepared in dimethyl sulfoxide (DMSO, Sigma-Aldrich, St. Louis, MO, cat. D2650) at 800-fold the tested concentration and stored at -70 degrees C prior to their use. All drugs and investigational agents were tested over a range starting from a high concentration at or near the clinical Cmax and decreasing in half-log increments. If the clinical Cmax for an agent had not been determined, the highest concentration tested was 10 microM.
NCI60 Cell Culture. NCI60 cell lines were obtained from the NCI Developmental Therapeutics Program Tumor Repository. For each lot of cells, the Repository performed Applied Biosystems AmpFLSTR Identifiler testing with PCR amplification to confirm consistency with the published Identifier STR profile for each cell line. Cells were kept in continuous culture for no more than 20 passages. The optimal seeding densities for each of the cell lines at each time point assessed were determined prior to performing the concentration response studies. Briefly, the NCI60 human tumor lines were grown as monolayers in RPMI 1640 medium supplemented with 10% FBS and 2 mmol/L L-glutamine.
An additional 9 lines were from the NCI60 cell line panel including MDA-MB-231 breast carcinoma, MDA-MB-468 breast carcinoma, MCF7 breast carcinoma, Hs578T breast carcinoma, MALME-3M melanoma, SK-MEL-2 melanoma, SK-OV-3 ovarian carcinoma, DU-145 prostate carcinoma, PC-3 prostate carcinoma, all cell lines along with major genetic alterations are listed on Table 2. Pooled donor human umbilical vein endothelial cells (HUVEC, Lonza, cat. CC-2519) and human mesenchymal stem cells (hMSC, Lonza, cat. PT-2501) were purchased from Lonza (Walkersville, MD).
PDMR cell lines were grown in complete medium (DC medium): Dulbecco's modified Eagle's medium (DMEM)/F12 supplemented with 5% fetal bovine serum (FBS), 2 mM L-glutamine, 100 U/mL penicillin and 100 µg/ml streptomycin, 0.4 µg/ml hydrocortisone, 10 ng/ml epidermal growth factor (EGF) recombinant human protein, 24 µg/mL adenine, and 0.1 mg/mL primocin. During culture from frozen stock vials, PDMR cells were cultured in the same medium containing 10 µM Y-27632 (see Table 3). The PDCs were cultured in complete DMEM/F12 media without 10 microM Y-27632 dihydrochloride for at least two passages prior to the screen. The pooled donor HUVEC and hMSC were cultured in endothelial cell growth medium 2 (PromoCell, Heidelberg, Germany, cat. C-22011) and mesenchymal stem cell growth medium 2 (PromoCell, cat. C-28009), respectively. For all experiments, HUVEC and hMSC were used at passages </=5.
[…]

The mark [1] stands for this setting: curve of first compound, second compound 0.1 µM.
Where [2] appears, read: curve of first compound, second compound 0.316 µM.
The mark [3] stands for this setting: curve of first compound, second compound 1 µM.
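Note: spheroids exposed to agents for 7 days.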

Turning to `Cn1ncc(Cl)c1-c1cc(C(=O)NC(CN)Cc2cccc(F)c2)sc1Cl` (configuration not stated) + CC(C)NCC(C(=O)N1CCN(c2ncnc3c2C(C)CC3O)CC1)c1ccc(Cl)cc1, the IC50 is 1310 nM under setting [1]; 1640 nM under setting [2]; 1250 nM under setting [3]; 920 nM (curve of first compound, second compound 3.16 µM); below 31.6 nM (curve of first compound, second compound 10 µM). Also, the viability, T/C was 98.5% (second compound 0.1 µM, first compound 0.0316 µM); 86.4% (second compound 0.1 µM, first compound 0.1 µM); 70% (second compound 0.1 µM, first compound 0.316 µM); 53.9% (second compound 0.1 µM, first compound 1 µM); 38.1% (second compound 0.1 µM, first compound 3.16 µM); 0.27% (second compound 0.1 µM, first compound 10 µM). Also, the viability, T/C was 77.7% (second compound 0.316 µM, first compound 0.0316 µM); 77.5% (second compound 0.316 µM, first compound 0.1 µM); 63.2% (second compound 0.316 µM, first compound 0.316 µM); 60.1% (second compound 0.316 µM, first compound 1 µM); 40% (second compound 0.316 µM, first compound 3.16 µM); 0.3% (second compound 0.316 µM, first compound 10 µM). Besides, the viability, T/C runs as follows: (second compound 1 µM, first compound 0.0316 µM) 63.4%; (second compound 1 µM, first compound 0.1 µM) 55.8%; (second compound 1 µM, first compound 0.316 µM) 55.3%; (second compound 1 µM, first compound 1 µM) 52.9%; (second compound 1 µM, first compound 3.16 µM) 39.8%; (second compound 1 µM, first compound 10 µM) 0.31%. Also, the viability, T/C is, setting by setting: (second compound 3.16 µM, first compound 0.0316 µM) 50.5%; (second compound 3.16 µM, first compound 0.1 µM) 56.8%; (second compound 3.16 µM, first compound 0.316 µM) 50%; (second compound 3.16 µM, first compound 1 µM) 49.5%; (second compound 3.16 µM, first compound 3.16 µM) 39.2%; (second compound 3.16 µM, first compound 10 µM) 0.3%. Also, the viability, T/C reads like this: (second compound 10 µM, first compound 0.0316 µM) 35.5%; (second compound 10 µM, first compound 0.1 µM) 45.2%; (second compound 10 µM, first compound 0.316 µM) 41.7%; (second compound 10 µM, first compound 1 µM) 35.8%; (second compound 10 µM, first compound 3.16 µM) 35.6%; (second compound 10 µM, first compound 10 µM) 0.42%.
`CC(=O)c1c(C)c2cnc(Nc3ccc(N4CCNCC4)cn3)nc2n(C2CCCC2)c1=O` + CCN1CCN(Cc2ccc(Nc3ncc(F)c(-c4cc(F)c5nc(C)n(C(C)C)c5c4)n3)nc2)CC1: the IC50 reads like this: (curve of first compound, second compound 0.01 µM) above 300 nM; (curve of first compound, second compound 0.0316 µM) above 300 nM; under setting [1], above 300 nM; under setting [2], above 300 nM; under setting [3], above 300 nM. The viability, T/C by setting is: (second compound 0.01 µM, first compound 0.000949 µM) 91.3%; (second compound 0.01 µM, first compound 0.003 µM) 88.8%; (second compound 0.01 µM, first compound 0.00949 µM) 91%; (second compound 0.01 µM, first compound 0.03 µM) 82.3%; (second compound 0.01 µM, first compound 0.0949 µM) 70.7%; (second compound 0.01 µM, first compound 0.3 µM) 59.1%. For the same compound, the viability, T/C (second compound 0.0316 µM, first compound 0.000949 µM) was 77.1%; the viability, T/C (second compound 0.0316 µM, first compound 0.003 µM) is 74.8%; the viability, T/C (second compound 0.0316 µM, first compound 0.00949 µM) is 72.8%; the viability, T/C (second compound 0.0316 µM, first compound 0.03 µM) is 65%; the viability, T/C (second compound 0.0316 µM, first compound 0.0949 µM) was 59.9%; the viability, T/C (second compound 0.0316 µM, first compound 0.3 µM) was 54.8%. The viability, T/C (second compound 0.1 µM, first compound 0.000949 µM) was 66.2%; the viability, T/C (second compound 0.1 µM, first compound 0.003 µM) is 61%; the viability, T/C (second compound 0.1 µM, first compound 0.00949 µM) was 67.3%; the viability, T/C (second compound 0.1 µM, first compound 0.03 µM) is 56.9%; the viability, T/C (second compound 0.1 µM, first compound 0.0949 µM) is 59.9%; the viability, T/C (second compound 0.1 µM, first compound 0.3 µM) is 57.1%. Besides, the viability, T/C by setting is: (second compound 0.316 µM, first compound 0.000949 µM) 58.3%; (second compound 0.316 µM, first compound 0.003 µM) 58.2%; (second compound 0.316 µM, first compound 0.00949 µM) 62%; (second compound 0.316 µM, first compound 0.03 µM) 54.6%; (second compound 0.316 µM, first compound 0.0949 µM) 56.4%; (second compound 0.316 µM, first compound 0.3 µM) 60.6%. Moreover, the viability, T/C by setting is: (second compound 1 µM, first compound 0.000949 µM) 55.5%; (second compound 1 µM, first compound 0.003 µM) 57.9%; (second compound 1 µM, first compound 0.00949 µM) 62%; (second compound 1 µM, first compound 0.03 µM) 54.1%; (second compound 1 µM, first compound 0.0949 µM) 57.6%; (second compound 1 µM, first compound 0.3 µM) 56.2%.
On to `CC(C)n1nc(-c2ccc3oc(N)nc3c2)c2c(N)ncnc21`, for which the viability, T/C was 103% and 88.9% (compound 0.000316 µM); 96.1% and 101% (compound 0.001 µM); 81.9% and 88% (compound 0.00316 µM); 54.3% and 52.7% (compound 0.01 µM); 31.7% and 27.2% (compound 0.0316 µM); 19.6% and 18.2% (compound 0.1 µM). The IC50 (curve of compound) is 12.7 nM and 11.5 nM.
Consider `CCN1CCN(Cc2ccc(Nc3ncc(F)c(-c4cc(F)c5nc(C)n(C(C)C)c5c4)n3)nc2)CC1`, for which the viability, T/C was 92% [middle of 13 runs] (compound 0.01 µM); 72.6% [middle of 13 runs] (compound 0.0316 µM); 62.2% [middle of 13 runs] (compound 0.1 µM); 57.3% [middle of 13 runs] (compound 0.316 µM); 56.8% [middle of 13 runs] (compound 1 µM).

In general, IC50 refers to the concentration at which inhibition is half-maximal. Usually viability, T/C stands for the result in the treated group divided by that in the control group, in per cent.

(Values after PubChem BioAssay AID2060341 (Molecular Pharmacology Branch, DTP, NCI, 2025).)
